{"source": "patent US20090297625A1", "about": "“AGENT FOR TREATING EYE DISEASES” (OTKRYTOE AKTSIONERNOE OBSCHESTVO ZAVOD, priority 2006, published 2009)", "origin": "cited, not measured here", "settings": "administration of lutein as an additive"}
{"compound": "CC1=C[C@H](O)CC(C)(C)[C@H]1/C=C/C(C)=C/C=C/C(C)=C/C=C/C=C(C)/C=C/C=C(C)/C=C/C1=C(C)C[C@@H](O)CC1(C)C", "note": "[lutein]", "values": [{"measurement": "absorption and storage in the macula lutea", "result": "well absorbed and stored in the macula lutea"}]}
